According to patent publication US20080312311A1, “Crystalline forms of 3-(2R-tetrahydrofuryl-methyl)-2-thioxanthine” (ASTRAZENECA AB, priority 2007, published 2008):

Legend:
[1] = polymorph transformation on stirring in solution; assay type: physicochemical
[2] = relative stability of crystal forms versus temperature; assay type: physicochemical

polymorph transformation on stirring in solution ([1]; stirring in a solution about or above 60° C.): transforms it to polymorph B | polymorph transformation on stirring in solution ([1]; stirring in solutions about or below 60° C.): transforms it to polymorph A | relative stability of the crystalline form ([2]; at ambient temperature, such as room temperature, Form A versus Form B): more stable | relative stability of the crystalline form ([2]; at temperatures over +65° C., Form B versus Form A): more stable
SMILES: O=c1[nH]c(=S)n(C[C@H]2CCCO2)c2nc[nH]c12 [3-(2R-tetrahydrofuryl-methyl)-2-thioxanthine]
